Experimental data taken from ChEMBL document CHEMBL5325485, “Design, synthesis and biological evaluation of salicylanilides as novel allosteric inhibitors of human pancreatic lipase” (Bioorg Med Chem, 2023).

biological target: T1, Pancreatic triacylglycerol lipase (Homo sapiens) (UniProt P16233); assay: Binding affinity to human Pancreatic lipase assessed as quenching constant by fluorescence quenching assay based spectrophotometer analysis; conditions: filed as negative allosteric modulator
T1 sequence (whole entry): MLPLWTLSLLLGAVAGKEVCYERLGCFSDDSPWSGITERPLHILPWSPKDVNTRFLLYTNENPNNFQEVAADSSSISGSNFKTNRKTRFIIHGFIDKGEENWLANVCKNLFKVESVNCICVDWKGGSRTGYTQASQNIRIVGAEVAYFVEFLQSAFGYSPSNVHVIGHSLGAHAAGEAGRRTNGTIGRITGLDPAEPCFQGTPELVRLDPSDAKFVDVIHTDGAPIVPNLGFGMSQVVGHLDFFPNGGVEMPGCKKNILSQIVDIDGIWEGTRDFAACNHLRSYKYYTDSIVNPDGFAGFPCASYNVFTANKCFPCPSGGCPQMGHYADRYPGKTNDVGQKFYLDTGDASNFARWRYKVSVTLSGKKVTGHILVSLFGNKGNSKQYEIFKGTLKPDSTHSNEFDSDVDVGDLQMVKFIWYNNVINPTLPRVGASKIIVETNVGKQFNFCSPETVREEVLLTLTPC

Compound | Kq
O=C(Nc1ccc(Oc2ccc(Cl)cc2)c(Cl)c1)c1cc(F)cc(F)c1O | 3.61 10^14L/mol/s
O=C(Nc1ccc(Oc2ccc(Cl)cc2)c(Cl)c1)c1cc(Cl)cc(Cl)c1O | 3.39 10^14L/mol/s

biological target: T2, Pancreatic triacylglycerol lipase (Homo sapiens, UniProt P16233); assay: Negative allosteric modulator activity at human Pancreatic lipase using DDAO-ol as fluorescent substrate preincubated for 3 mins followed by substrate addition measured after 20 mins by microplate reader assay; conditions: not given
T2 sequence (P16233 whole entry): T1 sequence (whole entry)

Compound | IC50 [µM]
CCCOc1ccccc1C(=O)Nc1ccc(Oc2ccc(Cl)cc2)c(Cl)c1 | 18.3
COc1ccccc1C(=O)Nc1ccc(Oc2ccc(Cl)cc2)c(Cl)c1 | 16.7
CCCCCCNc1ccc(C(=O)Nc2ccc(Oc3ccc(Cl)cc3)c(Cl)c2)c(O)c1 | 12.4
O=C(Nc1ccc(Oc2ccc(Cl)cc2)c(Cl)c1)c1cc(Br)cc(Br)c1O | 2.13
CCCNc1ccc(C(=O)Nc2ccc(Oc3ccc(Cl)cc3)c(Cl)c2)c(O)c1 | 5.99
O=C(Nc1ccc(Oc2ccc(Cl)cc2)c(Cl)c1)c1ccc(Cl)cc1O | 12.4
O=C(Nc1ccc(Oc2ccc(Cl)cc2)c(Cl)c1)c1cc(F)cc(F)c1O | 1.86
Cc1ccccc1C(=O)Nc1ccc(Oc2ccc(Cl)cc2)c(Cl)c1 | 27.4
CC(C)=CC[C@]12Oc3cc(O)c([C@H]4C=C(C)C[C@H](c5ccc(O)cc5O)[C@H]4C(=O)c4ccc(O)cc4O)c(O)c3C(=O)[C@@]1(O)Oc1cc(O)ccc12 [SANGGENON C] | 3.28
O=C(Nc1ccc(Oc2ccc(Cl)cc2)c(Cl)c1)c1ccccc1 | 10.5
COc1ccc(C(=O)Nc2ccc(Oc3ccc(Cl)cc3)c(Cl)c2)c(O)c1 | 10
O=C(Nc1ccc(Oc2ccc(Cl)cc2)c(Cl)c1)c1ccccc1Br | 11
Nc1ccc(C(=O)Nc2ccc(Oc3ccc(Cl)cc3)c(Cl)c2)c(O)c1 | 6.27
O=C(Nc1ccc(Oc2ccc(Cl)cc2)c(Cl)c1)c1ccccc1F | 23.7
O=C(Nc1ccc(Oc2ccccc2)c(Cl)c1)c1ccccc1O | 9.96
COc1ccc(Oc2ccc(NC(=O)c3ccccc3O)cc2)cc1 | 32.7
O=C(Nc1ccc(Oc2ccc(Cl)cc2)c(Cl)c1)c1ccc(F)cc1O | 4.27
O=C(Nc1ccc(Oc2ccc(Cl)cc2)c(Cl)c1)c1cc(I)cc(I)c1O [RAFOXANIDE] | 2.52
O=C(Nc1ccc(Oc2ccc(F)cc2)c(F)c1)c1ccccc1O | 11.4

Further lines, results first:

IC50 [µM] | Compound
20.4 | O=C(Nc1ccc(Oc2ccc(Cl)cc2)cc1)c1ccccc1O
15.8 | O=C(Nc1ccc(Oc2ccc(Cl)cc2)c(Cl)c1)c1ccccc1OC(F)(F)F
26.3 | COc1cccc(O)c1C(=O)Nc1ccc(Oc2ccc(Cl)cc2)c(Cl)c1
19.1 | O=C(Nc1ccc(Oc2ccccc2)cc1)c1ccccc1O
> 500 | O=C(Nc1ccc(O)cc1)c1ccccc1O [OSALMID]
9.24 | CC(C)Oc1ccc(Oc2ccc(NC(=O)c3ccccc3O)cc2)cc1
1.63 | O=C(Nc1ccc(Oc2ccc(Cl)cc2)c(Cl)c1)c1cc(Cl)cc(Cl)c1O
12 | Cc1ccc(Oc2ccc(NC(=O)c3ccccc3O)cc2)cc1
15 | O=C(Nc1ccc(Oc2ccc(Cl)cc2)c(Cl)c1)c1ccccc1Cl
6.75 | O=C(Nc1ccc(Oc2ccc(Cl)cc2)c(Cl)c1)c1ccccc1O

biological target: T2, Pancreatic triacylglycerol lipase; assay: Negative allosteric modulator activity at human Pancreatic lipase assessed as inhibition of PL-mediated DDAO-ol hydrolysis by measuring inhibition constant using DDAO-ol as fluorescent substrate by Lineweaver-Burk plot analysis; conditions: not given

Compound | Ki [µM]
O=C(Nc1ccc(Oc2ccc(Cl)cc2)c(Cl)c1)c1cc(F)cc(F)c1O | 1.67
O=C(Nc1ccc(Oc2ccc(Cl)cc2)c(Cl)c1)c1cc(Cl)cc(Cl)c1O | 1.7

biological target: T1, Pancreatic triacylglycerol lipase (Homo sapiens); assay: Binding affinity to human Pancreatic lipase assessed as Stem-Volmer quenching constant by fluorescence quenching assay based spectrophotometer analysis; conditions: filed as negative allosteric modulator

Compound | KSV
O=C(Nc1ccc(Oc2ccc(Cl)cc2)c(Cl)c1)c1cc(F)cc(F)c1O | 3.61 10^6L/mol
O=C(Nc1ccc(Oc2ccc(Cl)cc2)c(Cl)c1)c1cc(Cl)cc(Cl)c1O | 3.39 10^6L/mol

biological target: T2, Pancreatic triacylglycerol lipase; assay: Inhibition of Pancreatic lipase (unknown origin) using 4-MUO as fluorescent substrate preincubated for 3 mins followed by substrate addition measured after 20 mins by microplate reader assay; conditions: not given

Compound | IC50 [µM]
CC1(C)CC[C@]2(C(=O)O)CC[C@]3(C)C(=CC[C@@H]4[C@@]5(C)CCC(=O)C(C)(C)[C@@H]5CC[C@]43C)[C@@H]2C1 [OLEANONIC ACID] | 0.49
